Data as given in patent US6444809B1, “Therapeutic heterocycles” (Zeneca Limited, priority 1993, dated 2002).
Where a name gives a salt, the structure may show the parent alone.

Assays:
human NK2 receptor = target: T1, human NK2 receptor (Homo sapiens, UniProt P21452); experiment: Neurokinin A (NKA) receptor-binding assay (Test A), 3H-NKA binding to MEL cell membranes
T1 construct: expressed in transfected cells
T1 sequence (P21452 1-398): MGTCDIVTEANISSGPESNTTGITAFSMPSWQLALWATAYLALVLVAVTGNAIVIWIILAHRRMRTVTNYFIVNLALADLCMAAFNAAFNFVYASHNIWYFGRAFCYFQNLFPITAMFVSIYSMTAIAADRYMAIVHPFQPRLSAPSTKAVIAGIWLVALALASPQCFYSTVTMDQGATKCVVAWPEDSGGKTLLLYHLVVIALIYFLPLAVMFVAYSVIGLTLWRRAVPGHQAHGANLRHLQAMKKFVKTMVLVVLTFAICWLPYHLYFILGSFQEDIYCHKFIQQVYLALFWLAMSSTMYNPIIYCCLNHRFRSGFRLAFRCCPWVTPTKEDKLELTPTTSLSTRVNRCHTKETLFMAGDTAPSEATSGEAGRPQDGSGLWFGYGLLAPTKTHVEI
From the text: Neurokinin A (NKA) Receptor-binding Assay (Test A)
Heterologous protein expression in Mouse Erythroleukemia (MEL) cells uses the human globin locus control region (LCR) (F. Grosveld et al., Cell (1987) 51, 975-985). The cDNAs are inserted between the human beta-globin promoter and the second intron of the human beta-globin gene, and this expression cassette is then placed downstream of the LCR and transfected into MEL cells (M. Needham et al., Nucl. Acids Res. (1992) 20, 997-1003). Human NK2 receptor cDNA (A. Graham et al., Biochem. Biophys. Res. Commun. (1991) 177, 8-16) was isolated from human lung RNA by polymerase chain reaction and DNA sequenced. […] These were annealed and ligated to the hNK2R fragment by standard methods. Following cleavage with Hind III, the resulting fragment was cloned into the Hind III and Bam HI sites in the polylinker of the shuttle vector pMEG3. […] Directly after transfection, cells were diluted in culture medium to 10^4 and 10^5 cell per mL and 1 mL aliquots transferred to each well of a 24-well plate.
G418 was added to a concentration of 1 mg/mL 24 hours after the transfection to select for stable transfectants. […]
Nonspecific binding is routinely defined with 1 μM NKA. […] The filters are deposited in scintillation vials and read in a Beckman LS 6000LL Scintillation Counter.

guinea pig trachea = experiment: Guinea pig assay (Test B), antagonism of agonist (NKA or [β-Ala8]-NKA(4-10)) contraction of tracheal rings; type: cell-based
Experimental: Guinea Pig Assay (Test B)
In the test described below either NKA or [β-Ala^8]-NKA(4-10) is used as an agonist. The chosen agonist is refered to as AG throughout the description.
Male guinea pigs are killed by a sharp blow to the back of the head. The trachea are removed, trimmed of excess tissue and divided into two segments. […] Initial tension placed on each tissue is 1 g, which is maintained throughout a 0.5 to 1.5 hour equilibration period before addition of other drugs. Contractile responses are measured on a Grass polygraph via Grass FT-03 force transducers.
Tissues are challenged repetitively with a single concentration of AG (10 nM) with intervening 30 min periods with washing to allow the tension to return to baseline levels. […] Percent inhibition is determined when a Compound produces a statistically significant (p<0.05) reduction of the contraction and is calculated using the second contractile response as 100%.
Potencies of selected Compounds are evaluated by calculating apparent dissociation constants (KB) for each concentration tested using the standard equation: […]
where dose ratio=antilog[(AG −log molar EC50 without Compound) −(AG−log molar EC50 with Compound)]. The KB values may be converted to the negative logarithms and expressed as −log molar KB (i.e. PKB). […] The EC50 values are converted to the negative logarithms and expressed as −log molar EC50. […]

Ki (human NK2 receptor; Test A, typically found) [nM] | Structure (SMILES) | NK2 antagonist activity in the in vitro screen (Test A) (human NK2 receptor; result in words) | NK2 antagonist activity in the functional assay (Test B) (guinea pig trachea; result in words) | Kb (guinea pig trachea; Cavia porcellus, Test B, -log molar apparent dissociation constant KB) [nM]
 | CN(CC(CCN1CCC(N2CCOC2=O)CC1)c1ccc(Cl)c(Cl)c1)C(=O)c1ccccc1.Cl (stereo not shown) [Example 1, N-[2-(3,4-Dichlorophenyl)-4-[4-(2-oxo-1,3-oxazolidin-3-yl)piperidino]butyl]-N-methylbenzamide hydrochoride] | potent NK2 antagonist | potent NK2 antagonist | 
4.1 | CN(C[C@@H](CCN1CCC(N2CCCOC2=O)CC1)c1ccc(Cl)c(Cl)c1)C(=O)c1ccccc1 [Example 2, (S)-N-[2-(3,4-Dichlorophenyl)-4-(2-oxoperhydro-1,3-oxa-zin-3-yl)piperidino]butyl]-N-methylbenzamide hydrochloride] |  |  | 2
